This is an account of results in ChEMBL document CHEMBL1201862, “PubChem BioAssay data set” (2004).

Common to all, as to assay type: functional
Experiment [1] deals with Calcium/calmodulin-dependent protein kinase type 1 (Homo sapiens, UniProt Q14012).
Experiment [2] addresses Serine/threonine-protein kinase 3 (Homo sapiens, UniProt Q13188).
The target of experiment [3] is Cyclin-dependent kinase 9 (Homo sapiens, UniProt P50750).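 Also: value from the CDK9 entry of a kinome-spanning kinase panel.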
Cyclin-dependent kinase 9, sequence (P50750 whole entry): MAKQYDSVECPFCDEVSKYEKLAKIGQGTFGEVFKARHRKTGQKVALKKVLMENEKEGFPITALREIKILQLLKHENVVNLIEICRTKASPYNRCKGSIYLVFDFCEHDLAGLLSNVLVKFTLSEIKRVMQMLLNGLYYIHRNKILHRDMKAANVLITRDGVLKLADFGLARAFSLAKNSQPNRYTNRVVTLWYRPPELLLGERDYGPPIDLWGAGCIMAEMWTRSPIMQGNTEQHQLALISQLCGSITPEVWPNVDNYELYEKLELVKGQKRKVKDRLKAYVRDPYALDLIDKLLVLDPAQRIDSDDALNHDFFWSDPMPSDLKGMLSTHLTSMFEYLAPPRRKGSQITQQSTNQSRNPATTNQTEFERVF
Experiment [4] has as its target Serine/threonine-protein kinase TAO1 (Homo sapiens, UniProt Q7L7X3).
The target of experiment [5] is cGMP-dependent protein kinase 1 (Homo sapiens, UniProt Q13976).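 Also: value from a kinome panel screen with PRKG1 as the panel member.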
Experiment [6] addresses Macrophage colony-stimulating factor 1 receptor (Homo sapiens, UniProt P07333).
The target of experiment [7] is Serine/threonine-protein kinase MRCK alpha (Homo sapiens, UniProt Q5VT25).
Serine/threonine-protein kinase MRCK alpha, sequence (Q5VT25 whole entry): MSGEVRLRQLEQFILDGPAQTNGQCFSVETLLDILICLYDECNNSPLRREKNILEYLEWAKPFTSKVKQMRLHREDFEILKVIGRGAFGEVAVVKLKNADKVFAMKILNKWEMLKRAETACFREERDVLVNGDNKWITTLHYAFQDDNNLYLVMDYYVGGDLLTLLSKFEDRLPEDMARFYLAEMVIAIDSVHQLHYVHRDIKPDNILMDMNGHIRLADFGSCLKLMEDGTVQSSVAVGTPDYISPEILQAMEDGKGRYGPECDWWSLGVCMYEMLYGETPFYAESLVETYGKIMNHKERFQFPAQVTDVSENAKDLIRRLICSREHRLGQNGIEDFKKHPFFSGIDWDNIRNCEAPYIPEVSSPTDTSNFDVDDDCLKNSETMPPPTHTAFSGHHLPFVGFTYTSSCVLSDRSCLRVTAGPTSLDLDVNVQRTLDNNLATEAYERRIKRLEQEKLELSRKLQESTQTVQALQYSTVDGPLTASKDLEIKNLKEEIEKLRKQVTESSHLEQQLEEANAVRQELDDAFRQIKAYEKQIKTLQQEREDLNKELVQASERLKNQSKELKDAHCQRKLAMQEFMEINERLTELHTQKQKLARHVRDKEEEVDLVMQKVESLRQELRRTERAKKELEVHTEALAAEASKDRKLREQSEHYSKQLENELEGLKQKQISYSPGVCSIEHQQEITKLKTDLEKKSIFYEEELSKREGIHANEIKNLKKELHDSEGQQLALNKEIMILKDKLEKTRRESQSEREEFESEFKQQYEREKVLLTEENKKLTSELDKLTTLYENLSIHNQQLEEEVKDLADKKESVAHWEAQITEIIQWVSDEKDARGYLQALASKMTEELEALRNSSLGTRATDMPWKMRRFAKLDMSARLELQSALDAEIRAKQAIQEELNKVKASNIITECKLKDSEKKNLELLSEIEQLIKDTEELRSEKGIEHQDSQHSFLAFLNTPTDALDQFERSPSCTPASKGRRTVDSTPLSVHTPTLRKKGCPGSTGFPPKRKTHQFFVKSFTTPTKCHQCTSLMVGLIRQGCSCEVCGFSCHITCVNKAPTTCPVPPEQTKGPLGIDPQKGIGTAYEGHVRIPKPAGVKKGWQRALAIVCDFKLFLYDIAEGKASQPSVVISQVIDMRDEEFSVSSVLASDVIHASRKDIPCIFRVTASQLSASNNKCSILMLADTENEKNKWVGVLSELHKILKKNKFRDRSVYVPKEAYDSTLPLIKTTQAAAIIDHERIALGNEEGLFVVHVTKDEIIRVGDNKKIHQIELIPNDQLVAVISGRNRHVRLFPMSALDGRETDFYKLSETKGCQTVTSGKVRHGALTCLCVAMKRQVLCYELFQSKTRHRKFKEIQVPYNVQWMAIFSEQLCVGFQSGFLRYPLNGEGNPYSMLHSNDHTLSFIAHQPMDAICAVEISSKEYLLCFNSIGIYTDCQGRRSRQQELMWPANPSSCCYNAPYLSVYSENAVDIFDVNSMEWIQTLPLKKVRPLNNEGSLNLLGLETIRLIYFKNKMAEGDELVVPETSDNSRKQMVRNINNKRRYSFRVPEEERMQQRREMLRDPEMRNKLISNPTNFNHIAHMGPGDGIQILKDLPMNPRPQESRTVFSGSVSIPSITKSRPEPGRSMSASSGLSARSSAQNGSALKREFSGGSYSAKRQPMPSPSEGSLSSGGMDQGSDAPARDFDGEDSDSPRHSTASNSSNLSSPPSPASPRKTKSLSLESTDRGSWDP
The target of experiment [8] is Proto-oncogene tyrosine-protein kinase Src (Homo sapiens, UniProt P12931).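 Also: SRC entry within a kinome-wide kinase profiling panel.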
Proto-oncogene tyrosine-protein kinase Src, sequence (P12931 2-536 limits assumed): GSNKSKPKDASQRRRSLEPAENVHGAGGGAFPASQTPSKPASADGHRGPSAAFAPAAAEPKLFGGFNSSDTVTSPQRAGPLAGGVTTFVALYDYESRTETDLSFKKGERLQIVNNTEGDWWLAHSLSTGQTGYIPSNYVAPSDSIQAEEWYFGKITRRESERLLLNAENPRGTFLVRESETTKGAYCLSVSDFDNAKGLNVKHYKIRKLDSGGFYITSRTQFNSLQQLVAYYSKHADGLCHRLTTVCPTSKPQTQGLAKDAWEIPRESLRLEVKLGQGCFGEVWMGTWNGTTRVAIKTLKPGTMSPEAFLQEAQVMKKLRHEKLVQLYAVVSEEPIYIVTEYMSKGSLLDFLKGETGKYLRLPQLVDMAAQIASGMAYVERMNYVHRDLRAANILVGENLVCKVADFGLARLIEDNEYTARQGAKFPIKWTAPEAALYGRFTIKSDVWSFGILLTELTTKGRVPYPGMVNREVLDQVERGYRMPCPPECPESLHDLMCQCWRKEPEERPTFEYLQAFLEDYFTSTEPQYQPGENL

As a reminder, the Ki is a dissociation constant, usually derived from enzyme kinetics or from competition with a known ligand.

Activity calls are given as the source filed them.

Serine/threonine-protein kinase 3, sequence (Q13188 whole entry): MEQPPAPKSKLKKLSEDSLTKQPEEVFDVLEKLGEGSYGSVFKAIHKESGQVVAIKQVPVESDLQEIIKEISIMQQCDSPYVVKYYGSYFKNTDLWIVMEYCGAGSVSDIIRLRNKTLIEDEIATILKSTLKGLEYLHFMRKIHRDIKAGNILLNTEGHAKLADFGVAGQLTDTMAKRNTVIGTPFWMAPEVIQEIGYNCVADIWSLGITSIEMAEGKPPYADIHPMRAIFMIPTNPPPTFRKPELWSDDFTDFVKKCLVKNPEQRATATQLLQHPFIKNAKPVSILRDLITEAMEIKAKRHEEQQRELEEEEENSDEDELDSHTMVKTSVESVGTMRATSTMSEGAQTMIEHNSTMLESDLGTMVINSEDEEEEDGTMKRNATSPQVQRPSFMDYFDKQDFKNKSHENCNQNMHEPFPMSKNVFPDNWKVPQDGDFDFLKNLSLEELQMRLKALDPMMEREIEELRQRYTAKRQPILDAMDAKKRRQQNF
Serine/threonine-protein kinase TAO1, sequence (Q7L7X3 whole entry): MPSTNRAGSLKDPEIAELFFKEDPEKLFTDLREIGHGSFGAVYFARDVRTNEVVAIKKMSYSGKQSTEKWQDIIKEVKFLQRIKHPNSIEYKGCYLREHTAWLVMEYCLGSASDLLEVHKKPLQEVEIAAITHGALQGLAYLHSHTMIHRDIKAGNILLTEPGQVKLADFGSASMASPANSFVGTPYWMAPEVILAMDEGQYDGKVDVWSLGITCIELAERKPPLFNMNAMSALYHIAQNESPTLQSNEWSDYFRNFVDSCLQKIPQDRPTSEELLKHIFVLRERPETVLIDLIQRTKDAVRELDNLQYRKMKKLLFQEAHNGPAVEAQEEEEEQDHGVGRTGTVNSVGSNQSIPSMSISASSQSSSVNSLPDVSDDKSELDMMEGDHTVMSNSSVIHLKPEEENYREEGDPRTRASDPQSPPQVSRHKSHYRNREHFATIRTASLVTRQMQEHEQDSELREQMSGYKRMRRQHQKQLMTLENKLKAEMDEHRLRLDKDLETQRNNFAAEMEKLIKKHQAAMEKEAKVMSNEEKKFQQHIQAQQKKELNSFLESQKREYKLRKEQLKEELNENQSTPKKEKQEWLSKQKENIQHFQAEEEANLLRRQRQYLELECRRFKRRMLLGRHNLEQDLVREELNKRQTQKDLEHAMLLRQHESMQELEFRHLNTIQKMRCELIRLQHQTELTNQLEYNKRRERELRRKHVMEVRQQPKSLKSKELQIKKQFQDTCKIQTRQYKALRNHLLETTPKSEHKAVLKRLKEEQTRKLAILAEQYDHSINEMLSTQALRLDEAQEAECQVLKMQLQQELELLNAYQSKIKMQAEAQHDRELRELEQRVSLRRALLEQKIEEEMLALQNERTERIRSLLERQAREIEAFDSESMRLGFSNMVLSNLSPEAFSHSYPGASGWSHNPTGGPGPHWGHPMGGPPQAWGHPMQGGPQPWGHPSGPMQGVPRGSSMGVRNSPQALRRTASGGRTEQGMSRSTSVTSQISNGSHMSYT
Calcium/calmodulin-dependent protein kinase type 1, sequence (Q14012 whole entry): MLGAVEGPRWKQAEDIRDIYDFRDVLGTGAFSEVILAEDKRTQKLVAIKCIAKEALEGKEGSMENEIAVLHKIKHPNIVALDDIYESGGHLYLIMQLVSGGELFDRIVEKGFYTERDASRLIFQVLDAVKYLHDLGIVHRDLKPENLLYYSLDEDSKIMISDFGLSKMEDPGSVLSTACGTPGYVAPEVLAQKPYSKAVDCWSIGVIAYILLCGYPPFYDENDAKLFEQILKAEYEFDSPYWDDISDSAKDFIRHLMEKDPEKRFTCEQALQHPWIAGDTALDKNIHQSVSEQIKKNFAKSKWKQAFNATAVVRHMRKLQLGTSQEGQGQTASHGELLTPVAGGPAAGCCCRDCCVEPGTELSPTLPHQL

In the case of `OC1CCC(Nc2cc(Cl)nc(-c3c[nH]c4ncccc34)n2)CC1` (stereo not drawn), the Ki in experiment [1] is > 1580 nM (inactive); in experiment [2], 50.1 nM (active); in experiment [3], 251 nM (active); in experiment [4] it was 2510 nM (active); in experiment [5] it was > 1260 nM (inactive); in experiment [6], 200 nM (active). The Ki in experiment [7] is 20 nM (active); in experiment [8] it was > 2000 nM (inactive).
